Experimental data taken from ChEMBL document CHEMBL1914389, “Steroidal C-21 mercapto derivatives as dissociated steroids: discovery of an inhaled dissociated steroid” (Bioorg Med Chem Lett, 2011).

Columns and labels:
Rattus norvegicus [1] = test: Toxicity in ip dosed Brown-Norway rat assessed as decrease in thymus weight administered for 3 days; type: organism-based; settings: in vivo, 72 h
Rattus norvegicus [2] = test: Toxicity in ip dosed Brown-Norway rat assessed as decrease in adrenal weight administered for 3 days; type: organism-based; settings: in vivo, 72 h
Rattus norvegicus [3] = test: Toxicity in ip dosed Brown-Norway rat assessed as decrease in body weight administered for 3 days; type: organism-based; settings: in vivo, 72 h
Rattus norvegicus [4] = test: Antiinflammatory activity in intratracheal insufflated allergen challenged Brown-Norway rat assessed as inhibition of inflammatory cell influx administered as single dose; type: functional; settings: inhaled or nasal
[5] = target: T1, Glucocorticoid receptor (Homo sapiens) (UniProt P04150); test: Transactivation activity at glucocorticoid receptor in human HepG2 cells assessed as induction of tyrosine amino transferase at 1 uM relative to control; type: cell-based
T1 sequence (whole entry): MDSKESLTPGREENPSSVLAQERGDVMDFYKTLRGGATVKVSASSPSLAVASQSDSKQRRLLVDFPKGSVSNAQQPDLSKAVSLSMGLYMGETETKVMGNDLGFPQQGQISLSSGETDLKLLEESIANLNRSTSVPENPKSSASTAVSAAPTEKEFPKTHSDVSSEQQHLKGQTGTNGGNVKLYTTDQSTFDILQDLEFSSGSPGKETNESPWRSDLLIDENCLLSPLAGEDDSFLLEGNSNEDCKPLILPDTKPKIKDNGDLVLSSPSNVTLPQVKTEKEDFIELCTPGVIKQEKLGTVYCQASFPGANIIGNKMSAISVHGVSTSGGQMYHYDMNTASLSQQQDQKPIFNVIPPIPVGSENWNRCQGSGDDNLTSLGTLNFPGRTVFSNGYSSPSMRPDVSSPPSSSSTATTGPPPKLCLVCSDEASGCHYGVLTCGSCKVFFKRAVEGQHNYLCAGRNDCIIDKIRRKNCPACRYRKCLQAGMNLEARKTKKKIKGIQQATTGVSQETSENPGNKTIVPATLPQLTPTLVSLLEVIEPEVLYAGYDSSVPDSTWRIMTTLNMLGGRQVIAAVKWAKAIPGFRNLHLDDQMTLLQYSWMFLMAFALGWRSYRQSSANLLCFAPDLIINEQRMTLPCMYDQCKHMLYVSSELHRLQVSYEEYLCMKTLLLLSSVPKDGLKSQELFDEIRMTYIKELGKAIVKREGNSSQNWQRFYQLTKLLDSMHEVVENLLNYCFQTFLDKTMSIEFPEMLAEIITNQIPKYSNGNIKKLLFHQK

[6] = target: T2, Glucocorticoid receptor (Rattus norvegicus) (UniProt P06536); test: Transactivation activity at glucocorticoid receptor in rat H4II-E cells assessed as induction of tyrosine amino transferase at 1 uM relative to control; type: cell-based
T2 sequence (whole entry): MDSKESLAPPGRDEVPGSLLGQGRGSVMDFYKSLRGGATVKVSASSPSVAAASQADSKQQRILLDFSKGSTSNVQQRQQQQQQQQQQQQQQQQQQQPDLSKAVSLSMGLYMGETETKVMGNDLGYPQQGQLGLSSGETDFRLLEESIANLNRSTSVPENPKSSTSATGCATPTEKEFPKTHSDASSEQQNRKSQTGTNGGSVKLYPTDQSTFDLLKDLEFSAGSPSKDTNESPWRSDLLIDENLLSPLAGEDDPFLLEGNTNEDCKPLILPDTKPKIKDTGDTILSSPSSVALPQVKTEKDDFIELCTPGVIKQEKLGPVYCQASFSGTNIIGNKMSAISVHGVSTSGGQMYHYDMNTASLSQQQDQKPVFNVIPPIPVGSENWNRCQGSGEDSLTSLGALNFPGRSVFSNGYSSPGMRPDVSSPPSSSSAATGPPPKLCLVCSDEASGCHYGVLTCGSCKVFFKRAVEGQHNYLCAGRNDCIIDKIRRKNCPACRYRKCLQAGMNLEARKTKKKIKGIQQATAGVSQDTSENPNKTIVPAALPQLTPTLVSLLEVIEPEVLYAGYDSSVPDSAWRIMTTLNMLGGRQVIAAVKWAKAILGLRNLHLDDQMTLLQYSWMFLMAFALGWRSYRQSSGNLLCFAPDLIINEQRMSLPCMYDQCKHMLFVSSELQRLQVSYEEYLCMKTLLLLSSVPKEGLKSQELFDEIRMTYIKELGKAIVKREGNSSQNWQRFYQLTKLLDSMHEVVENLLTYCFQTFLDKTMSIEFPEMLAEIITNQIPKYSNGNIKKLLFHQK

[7] = target: T1, Glucocorticoid receptor (Homo sapiens); test: Transrepression activity at glucocorticoid receptor in human H292 cells assessed as inhibition of TNF-stimulated IL-6 cytokine synthesis at 1 uM relative to control; type: cell-based
Rattus norvegicus [8] = test: Antiinflammatory activity in ovalbumin-challenged Brown-Norway rat assessed as improvement in lung function administered via nose as dry powder inhalation once a day for 3 days; type: functional; settings: inhaled or nasal, 72 h
Rattus norvegicus [9] = test: Induction of thymolysis in ovalbumin-challenged Brown-Norway rat administered via nose inhalation; type: organism-based; settings: in vivo, inhaled_or_intranasal

Emax [5]: 113%
Emax [6]: 110%
Emax [7]: 99%
ED20 (Rattus norvegicus [9]): 0.023 mg/kg
Compound: CCC(=O)O[C@]1(C(=O)SCF)[C@H](C)C[C@H]2[C@@H]3C[C@H](F)C4=CC(=O)C=C[C@]4(C)[C@@]3(F)[C@@H](O)C[C@@]21C [FLUTICASONE PROPIONATE]
ED50 (Rattus norvegicus [1]): 0.14 mg/kg
ED50 (Rattus norvegicus [2]): 0.52 mg/kg
ED50 (Rattus norvegicus [3]): 0.34 mg/kg
ED50 (Rattus norvegicus [4]): 0.14 mg/kg
ED70 (Rattus norvegicus [8]): 0.021 mg/kg
